Measured values: patent US11229638B2, “Therapeutic heterocyclic compounds” (Gilead Sciences, Inc., priority 2017, dated 2022)

Target: T1, IDO1 (Homo sapiens, UniProt P14902)
T1 construct: HeLa cells were treated with a test compound in the presence of IFNγ, which induces IDO1 expression; host or cells: H1-HeLa cells, IDO1 induced with IFN-gamma
Assay: Cell-Based (HeLa) Assay for Measurement of IDO1 Inhibition
Conditions: H1-HeLa cells, IDO1 induced by IFNγ, 48 hour incubation, kynurenine in supernatant (absorbance at 480 nm); geometric mean of a minimum of four determinations
Procedure: Example 509. Cell-Based (HeLa) Assay for Measurement of IDO1 Inhibition
To measure IDO1 inhibition in tissue culture, HeLa cells were treated with a test compound in the presence of IFNγ, which induces IDO1 expression. Following incubation, cell supernatants were assayed for kynurenine levels, an indicator of IDO1 activity.
H1-HeLa cells (ATCC # CRL-1958) were seeded in 384-well plates (Greiner #82051-282) at a volume of 50 µL/well in DMEM (Corning #15-018-CM) supplemented with 10% FBS (Corning #35-011-CV) and 1% P/S/G (Corning #30-009-CL) at a density of 1,250 cells/well and incubated overnight at 37° C., 5% CO2/100% humidity. The following day, the test compounds were added in DMSO (0.5% final) at various concentrations, and IDO1 was inducibly expressed by the addition of 50 uL/well of 50 ng/mL of INFγ (Peprotech #300-02) in cell plating media. As a positive control, 50 uL of the cell plating media without IFNγ was added to several wells. Following a 48 hour incubation, the plates were spun down at 1,200 RPM for 5 min at 10° C. […]
Data in Table 1 were normalized based on positive (−IFNγ) and negative (+IFNγ) controls and EC50 values were calculated from the fit of the dose-response curves to a four-parameter equation. […]

T1 sequence (P14902 whole entry): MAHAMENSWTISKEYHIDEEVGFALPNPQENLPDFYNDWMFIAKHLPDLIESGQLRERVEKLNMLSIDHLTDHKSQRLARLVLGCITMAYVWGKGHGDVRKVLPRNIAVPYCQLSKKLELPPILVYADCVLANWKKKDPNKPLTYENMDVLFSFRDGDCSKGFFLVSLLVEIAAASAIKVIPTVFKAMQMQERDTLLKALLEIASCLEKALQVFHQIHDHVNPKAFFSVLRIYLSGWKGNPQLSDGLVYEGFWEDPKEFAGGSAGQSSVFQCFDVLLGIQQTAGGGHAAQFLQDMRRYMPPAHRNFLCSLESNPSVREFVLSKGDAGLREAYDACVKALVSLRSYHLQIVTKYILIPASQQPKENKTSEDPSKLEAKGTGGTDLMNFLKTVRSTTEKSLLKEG

Row | EC50 [nM] | Compound
1 | 29.9 | N-(4-chlorophenyl)-5-(3-(2,3-difluorophenyl)imidazo[1,5-a]pyridin-8-yl)-2-methylnicotinamide [Example 61]
2 | 5000 | Cc1ncc(-c2cccn3c(C4CCOC4)ncc23)cc1C(=O)Nc1ccc(F)cc1 (centres unmarked) [Example 76, N-(4-fluorophenyl)-2-methyl-5-(3-(tetrahydrofuran-3-yl)imidazo[1,5-a]pyridin-8-yl)nicotinamide]
